{"source": "paper PMC5404377", "about": "(Bioorganic & medicinal chemistry letters, 2016)", "key": {"hMOR": {"target": "hMOR (Homo sapiens, UniProt P35372)", "sequence (P35372 whole entry)": "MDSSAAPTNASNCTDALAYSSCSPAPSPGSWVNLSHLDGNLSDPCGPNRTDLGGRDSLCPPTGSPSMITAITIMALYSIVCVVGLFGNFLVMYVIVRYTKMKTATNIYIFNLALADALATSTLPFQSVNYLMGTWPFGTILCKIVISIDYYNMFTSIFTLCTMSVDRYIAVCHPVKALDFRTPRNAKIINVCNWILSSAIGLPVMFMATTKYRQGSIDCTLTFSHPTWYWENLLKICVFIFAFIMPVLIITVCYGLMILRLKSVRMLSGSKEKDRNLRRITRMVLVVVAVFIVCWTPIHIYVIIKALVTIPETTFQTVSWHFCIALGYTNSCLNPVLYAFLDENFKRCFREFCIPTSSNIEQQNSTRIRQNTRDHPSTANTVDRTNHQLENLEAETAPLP", "conditions": "read-out: Ki (nM) MOR; literature value; ref [14]; cited from earlier work"}, "hKOR": {"target": "hKOR (Homo sapiens, UniProt P41145)", "sequence (P41145 whole entry)": "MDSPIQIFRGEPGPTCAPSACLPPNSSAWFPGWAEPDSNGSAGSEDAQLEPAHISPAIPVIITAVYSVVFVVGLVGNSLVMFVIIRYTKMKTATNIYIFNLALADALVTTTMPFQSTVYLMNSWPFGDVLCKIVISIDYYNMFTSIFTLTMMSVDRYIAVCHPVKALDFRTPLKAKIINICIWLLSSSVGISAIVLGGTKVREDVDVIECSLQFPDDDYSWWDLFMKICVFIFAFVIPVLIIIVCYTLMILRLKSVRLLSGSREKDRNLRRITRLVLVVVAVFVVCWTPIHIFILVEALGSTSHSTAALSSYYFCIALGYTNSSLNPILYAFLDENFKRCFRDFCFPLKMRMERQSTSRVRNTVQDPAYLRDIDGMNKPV", "conditions": "read-out: Ki (nM) KOR; literature value; ref [14]; cited from earlier work"}, "MOR": {"target": "MOR (Rattus norvegicus, UniProt P33535)", "sequence (P33535 whole entry)": "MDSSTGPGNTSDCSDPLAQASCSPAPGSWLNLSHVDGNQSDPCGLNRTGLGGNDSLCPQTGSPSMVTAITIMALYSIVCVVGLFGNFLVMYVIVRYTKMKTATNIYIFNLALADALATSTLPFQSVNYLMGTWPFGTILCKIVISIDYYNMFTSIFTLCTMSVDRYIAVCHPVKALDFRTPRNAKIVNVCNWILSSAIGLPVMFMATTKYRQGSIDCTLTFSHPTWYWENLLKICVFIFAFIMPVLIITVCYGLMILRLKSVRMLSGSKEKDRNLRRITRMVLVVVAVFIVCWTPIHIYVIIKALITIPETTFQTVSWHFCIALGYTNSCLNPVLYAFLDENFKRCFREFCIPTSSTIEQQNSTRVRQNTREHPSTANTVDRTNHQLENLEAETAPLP", "assay": "[35S]GTPγS assay, agonist efficacy at MOR", "assay_type": "biochemical", "conditions": "for Emax: read-out: MOR %Emax; for MOR functional profile: [35S]GTPγS"}, "Male Swiss-Webster mice [1]": {"system": "Male Swiss-Webster mice", "assay": "Hot plate nociception test", "assay_type": "in vivo", "conditions": "mouse"}, "Male Swiss-Webster mice [2]": {"system": "Male Swiss-Webster mice", "assay": "Tail-flick nociceptive test", "assay_type": "in vivo", "conditions": "mouse"}, "DOR": {"target": "DOR (Rattus norvegicus, UniProt P33533)", "sequence (P33533 whole entry)": "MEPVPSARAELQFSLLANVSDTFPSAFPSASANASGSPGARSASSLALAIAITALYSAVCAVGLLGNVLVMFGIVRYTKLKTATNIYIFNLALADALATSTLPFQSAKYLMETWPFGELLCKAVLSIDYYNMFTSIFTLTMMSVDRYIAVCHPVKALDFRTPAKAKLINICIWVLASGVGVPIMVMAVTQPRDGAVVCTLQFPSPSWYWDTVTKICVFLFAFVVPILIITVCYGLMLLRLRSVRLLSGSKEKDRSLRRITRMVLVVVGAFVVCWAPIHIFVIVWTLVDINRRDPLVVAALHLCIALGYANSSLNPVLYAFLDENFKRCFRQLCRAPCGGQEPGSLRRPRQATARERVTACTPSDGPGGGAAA", "assay": "[35S]GTPγS assay, agonist efficacy at DOR", "assay_type": "biochemical", "conditions": "for agonist activity at DOR: [35S]GTPγS"}}, "data": [{"smiles": "O=C1/C(=C/c2ccccc2)C[C@@]2(O)[C@H]3Cc4ccc(O)c5c4[C@@]2(CCN3CC2CC2)[C@H]1O5", "note": "[BNTX, benzylidenenaltrexone]", "values": [{"measurement": "Ki", "setting": "hMOR", "result": 26, "unit": "nM"}, {"measurement": "Ki", "setting": "hKOR", "result": 48, "unit": "nM"}]}, {"smiles": "O=C1/C(=C/c2ccccc2)C[C@@]2(O)[C@H]3Cc4ccc(O)c5c4[C@@]2(CCN3CCCc2ccccc2)[C@H]1O5", "note": "[Compound 8]", "values": [{"measurement": "Emax", "setting": "MOR", "result": "< 10", "unit": "%"}]}, {"smiles": "CN1CC[C@]23c4c5ccc(O)c4O[C@H]2C(=O)/C(=C/c2ccccc2)C[C@@]3(O)[C@H]1C5", "note": "[Compound 6, 7-benzylideneoxymorphone]", "values": [{"measurement": "hot plate antinociception compared to saline control", "setting": "Male Swiss-Webster mice [1]; 50 mg/kg s.c., at 30 min (p<0.05)", "result": "significantly greater antinociception"}, {"measurement": "hot plate antinociception compared to saline control", "setting": "Male Swiss-Webster mice [1]; 60 mg/kg s.c., at 30 (p<0.01), 50 (p<0.001), 70 (p<0.05) min", "result": "significantly greater antinociception"}, {"measurement": "Emax, hot plate antinociception", "setting": "Male Swiss-Webster mice [1]; s.c., increasing doses 20-60 mg/kg", "result": "approximately 40 % MPE"}, {"measurement": "tail-flick antinociception compared to saline control", "setting": "Male Swiss-Webster mice [2]; 50 mg/kg s.c., at 70 min (p<0.01)", "result": "significantly greater antinociception"}, {"measurement": "tail-flick antinociception compared to saline control", "setting": "Male Swiss-Webster mice [2]; 60 mg/kg s.c., at 30 (p<0.001), 50 (p<0.01), 70 (p<0.01) min", "result": "significantly greater antinociception"}, {"measurement": "time of peak antinociception effects, tail-flick", "setting": "Male Swiss-Webster mice [2]; 60 mg/kg s.c., post-administration", "result": 30, "unit": "min"}, {"measurement": "EC50", "setting": "MOR", "result": "72 ± 11", "unit": "nM"}, {"measurement": "MOR functional profile", "setting": "MOR", "result": "partial agonists"}, {"measurement": "Emax", "setting": "MOR", "result": "39 ± 1.3", "unit": "%"}, {"measurement": "agonist activity at DOR", "setting": "DOR", "result": "no significant agonist activity"}]}, {"smiles": "O=C1/C(=C/c2ccccc2)C[C@@]2(O)[C@H]3Cc4ccc(O)c5c4[C@@]2(CCN3CCc2ccccc2)[C@H]1O5", "note": "[Compound 7]", "values": [{"measurement": "MOR functional profile", "setting": "MOR", "result": "partial agonists"}, {"measurement": "Emax", "setting": "MOR", "result": "52 ± 3.8", "unit": "%"}, {"measurement": "agonist activity at DOR", "setting": "DOR", "result": "no significant agonist activity"}, {"measurement": "Emax", "setting": "DOR; read-out: DOR %Emax", "result": "< 10", "unit": "%"}]}]}
